Data on one compound can be found in publication PMC10916400, “Effect of the aggregated protein dye YAT2150 on Leishmania parasite viability” (Antimicrobial Agents and Chemotherapy, 2024).

The nature of data set [1]: in vitro. The conditions noted are these: 37°C. Type of data set: in vitro ADME. As to the method: Plates (96-well Polypropylene Deep Well Plate; Corning Inc., Somerville, MA, US) containing 100 µL of 5 µM compounds in human plasma (Seralab, Granollers, Spain), pooled from healthy donors and extracted in citrate tubes, were incubated at 37°C for different times (0, 60, 120, and 360 min). Then, 300 µL ACN was added to precipitate plasma protein, and the plate was centrifuged at 4000 × g for 60 min at 4°C. For sample quantification, the resulting supernatant was taken and analyzed by ultra performance liquid chromatography with tandem mass spectrometry (UPLC-MS/MS; ACQUITY Xevo TQD UPLC QSM; Waters) in an ACQUITY BEH C18 column (1.7 µm, 2.1 × 50 mm; Waters). As mobile phase (0.6 mL/min flow rate) was used the following gradient of 0.1% formic acid in water (A) or in ACN (B): 95% A:5% B from 0 to 0.1 min, gradual increase to 100% B from 0.1 to 1 min, maintenance in 100% B from 1 to 2 min, return to 95% A:5% B from 2 to 2.1 min, and maintenance of this ratio from 2.1 to 2.5 min. Compound concentrations were calculated from the MS peak areas.

The subject of data set [2] is Caco-2 cells. In words: Caco-2 permeability assay. Type of data set: in vitro ADME. Conditions: Caco-2, A→B, 37°C. As to the method:
(§1) Caco-2 cells (ATCC under the license of Abcam Inc., doing business as NaviCyte Scientific, Berkeley, CA) cultured to confluency were trypsinized and seeded onto a filter transwell insert (high-throughput screening Transwell 96-well permeable supports; Corning Inc.) at a density of ~10,000 cells/well in Dulbecco’s modified Eagle’s medium (DMEM). Confluent cells were subcultured at passages 58–62 and grown in a humidified atmosphere of 5% CO2 at 37°C. Following an overnight attachment period (24 h after seeding), the cell medium was replaced every other day with fresh medium in both the apical and basolateral compartments. The cell monolayers were used for transport studies 21 days post-seeding, when monolayer integrity was checked by measuring the transepithelial electrical resistance (TEER). If TEER values were ≥500 Ω/cm^2, the medium was removed and the cells were washed twice with pre-warmed (37°C) Hank’s Balanced Salt Solution (HBSS). Compound stock solutions were made in DMSO and further diluted in HBSS (1% final DMSO concentration). All compounds, including controls (colchicine, E3S), were tested at a final concentration of 5 to 10 µM. For A → B directional transport, the donor working solution was added to the apical compartment (A) and HBSS as receiver working solution to the basolateral compartment (B). For B → A directional transport, the donor working solution was added to B and HBSS as receiver working solution to A. The cells were incubated at 37°C for 120 min with gentle stirring. At the end of the incubation, samples were taken from both donor and receiver compartments and transferred into 384-well plates, and compound concentrations were determined by UPLC-MS/MS analysis as for the plasma stability assay.

A short description of data set [3]: Caco-2 permeability assay. The conditions noted are these: human. The data set is classed as in vitro ADME. As to the method: as §1
Data set [4] addresses T1, CYP2C9 (Homo sapiens, UniProt P11712).
T1 construct: host or cells: baculovirus-infected insect cells (microsomes)
In words: Cytochrome inhibition activity assay. Type of data set: biochemical. The conditions noted are these: probe 7-methoxy-4-(trifluoromethyl)coumarin, human recombinant enzyme, 37°C. As to the method:
(§2) To screen the inhibition potential of the compounds using recombinant human cytochrome P450 enzymes (CYP1A2, CYP2C9, CYP2C19, and CYP2D6) and probe substrates with fluorescent detection, incubations were conducted in a 200-µL volume in 96-well microtiter plates (Costar #3915; Corning Inc.). Addition of cofactor-buffer mixture (0.2 M KH2PO4 buffer, 1.3 mM NADP, 3.3 mM MgCl2, 3.3 mM glucose-6-phosphate, and 0.4 U/mL glucose-6-phosphate dehydrogenase), previously diluted control Supersomes (insect cell control for Supersomes enzymes, baculovirus-insect cell-expressed; Corning Inc.), standard inhibitors (furafylline, tranylcypromine, sulfaphenazole, and quinidine), and test compounds was carried out by a Zephyr liquid handling station (Caliper Life Sciences, Hopkinton, MA, US). The plate was then pre-incubated at 37°C for 5 min, and the reaction was initiated by the addition of pre-warmed enzyme/substrate mix, which contained buffer (KH2PO4), cDNA-expressed P450 in insect cell microsomes, substrate (3-cyano-7-ethoxycoumarin for CYP1A2 and CYP2C19, 7-methoxy-4-(trifluoromethyl)coumarin for CYP2C9, and 3-[2-(N,N-diethyl-N-methylammonium)ethyl]-7-methoxy-4-methylcoumarin for CYP2D6) to obtain the final assay concentrations in a reaction volume of 200 µL. Reactions were terminated after a specific time for each cytochrome by the addition of stop solution (ACN:0.5 M tris-HCl, 80:20 vol/vol). Fluorescence in each well was measured using a fluorescence plate reader (EnVision 2104 multilabel plate reader; PerkinElmer, Waltham, MA, US), and percentage of inhibition was calculated.

In data set [5] the target is T2, CYP1A2 (Homo sapiens, UniProt P05177).
T2 construct: host or cells: baculovirus-infected insect cells (microsomes)
T2 sequence (P05177 1-516): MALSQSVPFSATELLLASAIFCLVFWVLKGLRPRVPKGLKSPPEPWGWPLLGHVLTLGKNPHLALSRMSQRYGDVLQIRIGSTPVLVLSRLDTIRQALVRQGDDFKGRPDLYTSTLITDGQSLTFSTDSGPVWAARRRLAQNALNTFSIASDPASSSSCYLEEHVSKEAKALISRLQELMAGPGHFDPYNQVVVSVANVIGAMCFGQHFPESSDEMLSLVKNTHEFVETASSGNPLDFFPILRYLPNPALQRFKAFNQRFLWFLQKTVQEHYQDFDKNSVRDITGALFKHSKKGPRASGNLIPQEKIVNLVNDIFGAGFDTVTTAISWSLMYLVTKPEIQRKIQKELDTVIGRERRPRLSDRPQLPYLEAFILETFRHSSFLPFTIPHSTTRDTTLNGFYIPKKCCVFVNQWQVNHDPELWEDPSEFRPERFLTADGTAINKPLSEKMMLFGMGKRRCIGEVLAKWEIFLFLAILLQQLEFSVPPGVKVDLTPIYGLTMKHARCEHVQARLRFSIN
As to the kind of experiment: Cytochrome inhibition activity assay. The data set is classed as biochemical. The conditions noted are these: probe 3-cyano-7-ethoxycoumarin, human recombinant enzyme, 37°C. On the procedure:
as §2

Data set [6] addresses T3, CYP2C19 (Homo sapiens, UniProt P33261).
T3 construct: host or cells: baculovirus-infected insect cells (microsomes)
In words: Cytochrome inhibition activity assay. Type of data set: biochemical. The conditions noted are these: human recombinant enzyme, 37°C. On the procedure: as §2

Data set [7] deals with T4, CYP2D6 (Homo sapiens, UniProt P10635).
T4 construct: host or cells: baculovirus-infected insect cells (microsomes)
As to the kind of experiment: Cytochrome inhibition activity assay. The data set is classed as biochemical. The conditions noted are these: human recombinant enzyme, 37°C. On the procedure:
as §2

T1 sequence (P11712 whole entry): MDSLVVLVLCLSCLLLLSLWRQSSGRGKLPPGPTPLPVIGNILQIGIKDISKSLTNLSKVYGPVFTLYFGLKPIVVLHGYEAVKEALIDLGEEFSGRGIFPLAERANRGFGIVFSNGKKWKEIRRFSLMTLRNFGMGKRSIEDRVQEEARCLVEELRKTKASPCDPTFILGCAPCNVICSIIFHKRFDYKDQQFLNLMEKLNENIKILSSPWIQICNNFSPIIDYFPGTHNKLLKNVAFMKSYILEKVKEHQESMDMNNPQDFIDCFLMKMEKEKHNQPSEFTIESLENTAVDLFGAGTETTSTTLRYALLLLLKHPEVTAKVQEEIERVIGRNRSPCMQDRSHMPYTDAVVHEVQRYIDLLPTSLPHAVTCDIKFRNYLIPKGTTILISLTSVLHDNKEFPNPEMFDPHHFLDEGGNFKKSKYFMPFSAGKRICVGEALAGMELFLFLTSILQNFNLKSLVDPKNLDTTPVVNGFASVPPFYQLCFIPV
T4 sequence (P10635 whole entry): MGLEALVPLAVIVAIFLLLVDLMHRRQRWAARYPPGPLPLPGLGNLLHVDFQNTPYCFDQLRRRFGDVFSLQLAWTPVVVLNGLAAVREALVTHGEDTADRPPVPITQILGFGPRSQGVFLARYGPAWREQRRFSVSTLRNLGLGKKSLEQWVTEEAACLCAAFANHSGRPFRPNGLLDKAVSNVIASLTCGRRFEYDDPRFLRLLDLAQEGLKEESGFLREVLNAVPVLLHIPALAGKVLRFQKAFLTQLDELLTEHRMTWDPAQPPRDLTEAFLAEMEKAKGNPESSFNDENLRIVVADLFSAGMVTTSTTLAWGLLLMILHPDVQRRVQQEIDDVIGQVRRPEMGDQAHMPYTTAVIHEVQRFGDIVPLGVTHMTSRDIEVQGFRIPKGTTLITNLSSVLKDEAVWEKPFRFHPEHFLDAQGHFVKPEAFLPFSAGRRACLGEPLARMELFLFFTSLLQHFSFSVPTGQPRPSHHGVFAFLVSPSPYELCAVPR
T3 sequence (P33261 whole entry): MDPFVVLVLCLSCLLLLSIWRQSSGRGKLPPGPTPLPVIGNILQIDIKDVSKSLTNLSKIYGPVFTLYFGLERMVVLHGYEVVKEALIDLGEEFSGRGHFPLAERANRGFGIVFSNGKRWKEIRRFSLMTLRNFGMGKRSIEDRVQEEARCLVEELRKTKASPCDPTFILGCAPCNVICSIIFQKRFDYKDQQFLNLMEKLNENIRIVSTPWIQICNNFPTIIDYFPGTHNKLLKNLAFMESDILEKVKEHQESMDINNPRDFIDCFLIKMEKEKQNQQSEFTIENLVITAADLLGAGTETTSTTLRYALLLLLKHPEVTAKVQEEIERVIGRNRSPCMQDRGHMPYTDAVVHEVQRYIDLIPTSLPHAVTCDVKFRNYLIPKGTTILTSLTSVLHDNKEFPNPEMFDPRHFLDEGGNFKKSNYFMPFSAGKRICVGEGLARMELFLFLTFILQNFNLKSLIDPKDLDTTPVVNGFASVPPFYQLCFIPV

Consider `CCN(CC)c1ccc(/C=C/c2cc[n+](CCCCCCCCCC[n+]3ccc(/C=C/c4ccc(N(CC)CC)cc4)c(C)c3)cc2C)cc1` [YAT2150], for which, in data set [1] (human plasma, after 6 h), the “% remaining, plasma stability” value amounted to 91.3%. Also, the amount remaining at 1 h, 5 µM in data set [1] (human, plasma, after 1 h, read-out: % remaining, plasma stability) is 100%. The amount remaining at 2 h, 5 µM in data set [1] (human, plasma, after 2 h, read-out: % remaining, plasma stability) came out at 99.7%. Further, in data set [1] (human, plasma, after 6 h, read-out: % remaining, plasma stability), the fraction remaining at 6 h, 5 µM came to 91%. In addition, in data set [2], the “Papp AB” value amounted to 207.6 ± 20.1 nm/s. In data set [3] (Caco-2, Caco-2, A→B, 37°C), this compound yielded a Papp A→B at 120 min of more than 200 nm/s. The Papp B→A at 120 min in data set [3] (Caco-2, Caco-2, B→A, 37°C) is approximately 100 nm/s. In addition, in data set [3] (Caco-2, Papp BA/Papp AB), the efflux ratio at 120 min amounted to 0.48. Besides, the inhibition at 10 µM in data set [4] and in data set [5] was approximately 50% each time. For the same compound, the results for the IC50 in data set [6] and in data set [7] were 1.1 µM and 1.7 µM, respectively.
